From patent US8633025B2, “Generation of neuronal cells from embryonic stem cells” (Universite Libre de Bruxelles, priority 2007, dated 2014)

Tests used:
ES cell-derived neurons [1] = experiment: Whole-cell patch clamp recording of spontaneous post-synaptic currents; assay type: cell-based, mouse; conditions: for Inhibition of recorded ePSCs: NBQX 5 μM and APV 50 μM
Description: Electrophysiological recordings were performed at room temperature (20-25° C.) in an external solution (ACSF) containing 120 mM NaCl, 26 mM NaHCO3, 11 mM D-glucose, 2 mM KCl, 2 mM CaCl2, 1.2 mM MgSO4 and 1.2 mM KH2PO4 with an osmolarity of 290 mOsm. The recording chamber was constantly superfused at a flow rate of 1 ml/min. […] Both pipette solutions were adjusted to pH 7.3 and 300-330 mOsm/l. Whole-cell patch clamp recordings were carried out with an EPC10 amplifier (HEKA, Elektronik, Lambrecht/Pfalz, Germany) in voltage clamp mode. Signals were filtered at 4 kHz using the built-in filter of EPC10 and digitally sampled at 20 kHz except spontaneous postsynaptic currents signals that were filtered at 2.5 kHz and digitally sampled at 5 kHz. Voltage protocol generation, data acquisition and analysis were made with Pulse 8.65 (HEKA, Elektronik, Lambrecht/Pfalz, Germany). The presence of spontaneous excitatory postsynaptic currents (sEPSCs) was assessed by clamping neurons to −60 mV in the presence of 100 μM picrotoxin. The presence of spontaneous inhibitory postsynaptic currents (sIPSCs) was assessed by clamping neurons to […] in the presence of 1 μM TTX, 5 μM 2,3-dioxo-6-nitro-1,2,3,4-tetrahydrobenzo[f]quinoxaline-7-sulfonamide disodium salt (NBQX) and 50 μM D-(−)-2-amino-5-phosphonopentanoic acid (APV). To further check the nature of spontaneous postsynaptic currents, NBQX (5 μM) and APV (50 μM) were used to block AMPA and NMDA receptors respectively and picrotoxin (100 μM) was used to block GABAA receptors. Fifteen neurons were recorded for each type of PSC and for each condition (DDM or DDM+cyclo).

ES cell-derived neurons [2] = experiment: Neurotransmission markers among Tuj1-positive neurons derived from ES cells (immunofluorescence); assay type: cell-based, mouse; conditions: of Tuj1-positive cells after 28 days of differentiation
Description: Similar results were obtained with several ES cell lines, including distinct derivatives of E14 and J1 cells. ES cells were trypsinised, dissociated and plated at a density of 5×10^3 cells/cm^2 on gelatin-coated cell culture plastic dishes in ES medium. When needed, the cells were plated for 15-30 minutes on gelatin coated-dishes, to let the MEFS adhere and the supernatant containing ES cells only was recovered and subsequently replated on gelatin coated dishes. After adhesion, medium was changed to “Default Differentiation Medium” (DDM). DDM consists of DMEM/F12 (Invitrogen-Gibco) supplemented with 1×N2 supplement (100×N2 supplement consists of 8.61 μM insulin, 1 mM transferrin, 2 μM progesterone, 10.01 mM putrescine and 3.01 μM selenite; Invitrogen-Gibco), 2 mM glutamine (Invitrogen-Gibco), 1×MEM-nonessential amino acids (Invitrogen-Gibco), 1 mM sodium pyruvate (Invitrogen-Gibco), 110 μM beta-mercaptoethanol (Sigma) and 0.5 mg/ml Bovine Serum Albumine, Fraction V (Invitrogen-Gibco). Medium was changed every two days. […]
For quantification of the proportion of cells expressing a specific marker (differentiation markers, region-specific markers, neurotransmitter transporter proteins or layer-specific markers), at least 300 cells from 3 independent experiments (at least 100 cells from each experiment) were counted for each time-point studied. […]

ES cell-derived neurons [3] = experiment: Slice overlay assay on postnatal cortical slices, radial orientation; assay type: cell-based; conditions: 21 days of differentiation, four days after plating on mouse postnatal cortical slices
ES cell-derived neurons [4] = experiment: Morphology and Pyramidal Morphology Index (PMI) of MAP2-positive neurons; assay type: cell-based, mouse
Source text: Pictures of at least 100 neurons stained for MAP2 were to taken randomly for each condition and from two different experiments and the quantification was done blindly in Adobe Photoshop Software using a 25 μm circle drawn on a superposed layer.

[5] = system: ES cell-derived neural progenitors; conditions: short BrdU pulse
Description: (§1) Experimental procedures were as described in Example 1. […] Ethanol was used as control.
For long term pulse chase experiments, BrdU (Becton Dickinson) was added to the differentiation medium on the different days during 24 h at a final concentration of 10 μM. Cells were dissociated after 21 days of differentiation and plated on coated coverslips for an additional day. For short-term BrdU uptake experiments, BrdU was added to the differentiation medium during 1 hour prior to cell dissociation and replating.
For BrdU detection, medium was removed and cells were rinsed with PBS then fixed for 30 min in 4% paraformaldehyde (PFA) in PBS, pH 7.4 at 4° C. PFA was removed and cells were rinsed three times with PBS. BrdU was unmasked using an antigen retrieval method: cells were boiled during 4×5 minutes in 10 mM citrate buffer (pH 6.0) and cooled down to room temperature during 20 minutes. Immunostaining was performed as described above using mouse anti-BrdU (1/50, Becton Dickinson) or rat anti-BrdU (1/250, Abcam) antibodies. Multiple labelling was performed sequentially as described above.

ES cells = experiment: Regional identity markers among Nestin-positive neural progenitors from ES cells differentiated in DDM+cyclo (immunofluorescence); assay type: cell-based, mouse
Description: Similar results were obtained with several ES cell lines, including distinct derivatives of E14 and J1 cells. ES cells were trypsinised, dissociated and plated at a density of 5×10^3 cells/cm^2 on gelatin-coated cell culture plastic dishes in ES medium. When needed, the cells were plated for 15-30 minutes on gelatin coated-dishes, to let the MEFS adhere and the supernatant containing ES cells only was recovered and subsequently replated on gelatin coated dishes. After adhesion, medium was changed to “Default Differentiation Medium” (DDM). DDM consists of DMEM/F12 (Invitrogen-Gibco) supplemented with 1×N2 supplement (100×N2 supplement consists of 8.61 μM insulin, 1 mM transferrin, 2 μM progesterone, 10.01 mM putrescine and 3.01 μM selenite; Invitrogen-Gibco), 2 mM glutamine (Invitrogen-Gibco), 1×MEM-nonessential amino acids (Invitrogen-Gibco), 1 mM sodium pyruvate (Invitrogen-Gibco), 110 μM beta-mercaptoethanol (Sigma) and 0.5 mg/ml Bovine Serum Albumine, Fraction V (Invitrogen-Gibco). Medium was changed every two days.
(§2) Medium was removed and cells were rinsed with PBS then fixed for 30 min in 4% paraformaldehyde (PFA) in PBS, pH 7.4 at 4° C. PFA was removed and cells were rinsed three times with PBS. Blocking of unspecific antibody activity and permeabilization was done in PBS supplemented with 5% horse serum (Invitrogen-Gibco), 3% bovine serum albumin (Sigma) and 0.3% Triton X-100 (Sigma). Incubation with primary antibodies was done in PBS supplemented with 1% horse serum, 3% bovine serum albumin and 0.1% Triton X-100 overnight at 4° C. Cells were rinsed three times with PBS and incubated with secondary antibodies in PBS supplemented with 1% horse serum, 3% bovine serum albumin and 0.1% Triton X-100 for one hour at room temperature then rinsed again three times with PBS. For double or multiple immunostaining, the process was repeated. Nuclei were stained with bisbenzimide (Hoechst#33258; Sigma) and coverslips were mounted with glycergel (DAKO). For some antibodies, antigen retrieval was used before blocking: cells were boiled during 4×5 minutes in 10 mM citrate buffer (pH 6.0) and cooled down to room temperature during 20 minutes.
(§3) For quantification of the proportion of cells expressing a specific marker (differentiation markers, region-specific markers, neurotransmitter transporter proteins or layer-specific markers), at least 300 cells from 3 independent experiments (at least 100 cells from each experiment) were counted for each time-point studied.
as §1

ES cell-derived neurons [6] = experiment: Layer-specific cortical markers among Tuj1+ neurons (immunofluorescence); assay type: cell-based, mouse; conditions: of all Tuj1+ neurons, days 16-21
Description: as §2, with “Nuclei were stained with bisbenzimide (Hoechst#33258; Sigma) and coverslips were mounted with glycergel (DAKO).” left out
as §3
We studied the expression of the following layer-specific markers corresponding to the major subtypes of cortical neurons generated in vivo in the mouse, including: Tbr1 and reelin for preplate neurons and Cajal-Retzius cells; Tle4, Tbr1, CTIP2, Otx1, Er81, FoxP2 for deep ([…]) layer neurons; Satb2 and Cux1 for upper (II/III/IV) layer neurons and callosal projection neurons of layer V (see FIG. 5).

[7] = system: ES cell-derived neural progenitors; experiment: Regional markers among Nestin-positive progenitors after DDM+Shh or DDM+Dkk; assay type: cell-based, mouse; conditions: 14 days
Description: FIG. 12 illustrates that neural progenitors and neurons of ventral telencephalic identity (including cortical interneurons, striatal interneurons, striatal projections neurons) can be generated from ES cells following DDM+Shh (at 1-10 μM) or DDM+DDK Wnt inhibitor (at 100-300 ng/ml), or a combination of both (at 1 μM/100 ng/ml respectively). (A) Proportion of Nestin positive neural progenitors expressing specific neural regionalization markers following 14 days of differentiation in DDM or DDM+Shh or DDM+DKK. (B), (C) Proportion of VgluT1, VgluT2 and vGAT, and reelin, Tbr1, Isl1 among Tuj1 positive neurons after 21 days of differentiation in DDM alone or DDM+Shh or DDM+DKK, or DDM+Shh/DKK.
To increase the proportion of ventral character of the ES cell-derived neural progenitors, we chose to increase Shh signalling, by adding soluble recombinant Shh to DDM, or to antagonize dorsalizing Wnt-signalling, by adding Dickkopf-1 (Dkk), a soluble antagonist of the Wnt pathway.

[8] = neurons after 28 days following differentiation in DDM
[9] = cyclopamine 1 μM day 2 to day 10, 14 days, of Nestin-positive cells

2,3-dioxo-6-nitro-1,2,3,4-tetrahydrobenzo[f]quinoxaline-7-sulfonamide disodium salt [NBQX]
Inhibition of recorded ePSCs (ES cell-derived neurons [1]; [8]): selective inhibition

N[C@H](CCCP(=O)(O)O)C(=O)O [APV, D-(−)-2-amino-5-phosphonopentanoic acid]
Inhibition of recorded ePSCs (ES cell-derived neurons [1]; [8]): selective inhibition

CC1=C2C[C@H]3[C@@H](CC=C4C[C@@H](O)CC[C@@]43C)[C@@H]2CC[C@]12O[C@@H]1C[C@H](C)CN[C@H]1[C@H]2C [cyclopamine]
VGluT1 expressing neurons (ES cell-derived neurons [2]): 70.04+/−2.98%
VGluT2 expressing neurons (ES cell-derived neurons [2]): 15.46+/−2.52%
Neurons displaying a radial orientation (ES cell-derived neurons [3]): 64.98+/−2.40%
GABAergic inhibitory post-synaptic currents (iPSCs) recorded (ES cell-derived neurons [1]): no or little iPSCs could be recorded
Neurons displaying glutamatergic excitatory post-synaptic currents (ePSCs) (ES cell-derived neurons [1]): 38.89+/−11.49%
Neurons with PMI superior to the cut-off value (ES cell-derived neurons [4]; cut-off 1.2 μm, of MAP2-positive neurons after 28 days of differentiation): 77.23+/−4.17%
PMI compared with DDM conditions (ES cell-derived neurons [4]; p<0.001, Mann-Whitney test): significantly higher PMI
Neurons showing a unipolar morphology (ES cell-derived neurons [4]; semi-quantitative scoring, MAP2-positive neurons, 28 days): 61.39+/−4.84%
BrdU labelled neural progenitors, day 10 ([5]; day 10): 42.11+/−3.42%
BrdU labelled neural progenitors, day 14 ([5]; day 14): 28.57+/−2.00%
Otx1-2 positive neural progenitors (ES cells; cyclopamine 1 μM day 2 to day 10, 14 days of differentiation, of Nestin-positive cells): 75.57+/−1.21%
Gsh2 expression among neural progenitors (ES cells; [9]): 1.37+/−0.61%
Nkx2.1 expression among neural progenitors (ES cells; [9]): 1.87+/−1.10%
Nkx2.2 expression among neural progenitors (ES cells; [9]): 4.05+/−1.10%
Otx1 expression among neural progenitors (ES cells; [9]): 71.21+/−2.52%
Pax6 expression among neural progenitors (ES cells; [9]): 73.03+/−2.44%
Effect on the neuralization process (pattern of pan-neural markers) (ES cells; different time points, compared with DDM without cyclopamine): did not change significantly
CTIP2 expressing neurons (ES cell-derived neurons [6]): 36.01+/−1.52%
Cux1 expressing neurons (ES cell-derived neurons [6]): 10.56+/−0.80%
Otx1 expressing neurons (ES cell-derived neurons [6]): 15.42+/−1.06%
Satb2 expressing neurons (ES cell-derived neurons [6]): 7.60+/−0.78%
Tbr1 expressing neurons (ES cell-derived neurons [6]): 38.14+/−1.54%
reelin expressing neurons (ES cell-derived neurons [6]): 21.18+/−1.28%

picrotoxin
Inhibition of recorded iPSCs (ES cell-derived neurons [1]; neurons after 28 days following differentiation in DDM, picrotoxin 100 μM): selective inhibition

B1: Dkk: Dickkopf-1 (Dkk), a soluble antagonist of the Wnt pathway (protein, UniProt O94907 32-266, looked up)
Dickkopf-related protein 1: TLNSVLNSNAIKNLPPPLGGAAGHPGSAVSAAPGILYPGGNKYQTIDNYQPYPCAEDEECGTDEYCASPTRGGDAGVQICLACRKRRKRCMRHAMCCPGNYCKNGICVSSDQNHFRGEIEETITESFGNDHSTLDGYSRRTTLSSKMYHTKGQEGSVCLRSSDCASGLCCARHFWSKICKPVLKEGQVCTKHRRKGSHGLEIFQRCYCGEGLSCRIQKDHHQASNSSRLHTCQRH
Proportion of Nkx2.1 positive progenitors ([7]; 300 ng/ml Dkk, of all Nestin-positive cells): 29.0±2.0%
Expression of Pax6 among progenitors ([7]; Dkk 300 ng/ml, of Nestin-positive cells): 23.7±1.4%
